What was measured:
Format in all cases: biochemical
[1] = biological target: T1, AChE (Electrophorus electricus) (Electrophorus electricus, UniProt O42275); test: AChE inhibition, Ellman's method
T1 construct: purchased Sigma-Aldrich (Steinheim, Germany)
Description: (§1) The assay was performed in two steps.
(§2) All enzymes were obtained from Sigma-Aldrich (Steinheim, Germany). Ellman’s reagent and the substrates were obtained from Fluka (Buchs, Switzerland). The chemicals used to prepare the buffer solution were purchased from Merck (Darmstadt, Germany).
(§3) The enzyme inhibitory activities of the synthesized compounds were investigated by applying Ellman’s method. Enzyme solutions were dissolved in gelatin solution (1%; 2.5 units/mL). […] Then, the reaction was initiated by the addition of Ellman’s reagent 5,5′-Dithiobis(2-nitrobenzoic acid) (DTNB; 20 µL/well, 10 mM) and the substrate (10 µL/well, 75 mM). […] The enzyme solution was processed as a control. All readings were adjusted with blank-reading. All assays were performed in four independent wells. […] Absorbance differences between the two readings were taken, and percentage inhibition rates were calculated according to the following formula: % Inhibition=[(A(C)−A(B))−(A(I)−A(B))]/(A(C)−A(B))×100.
(§4) • Blank (B): the well in which the inhibitor compound and substrate were not added; • Control (C): the well where the inhibitor compound was not added; • A(B): the difference in absorbance reading for the blank; • A(C): the difference in absorbance reading for the control; • A(I): the difference in absorbance reading for the inhibitor compounds.

AChE (Human) = biological target: T2, AChE (Human) (Homo sapiens, UniProt P22303); test: AChE inhibition, Ellman's method
T2 construct: purchased Sigma-Aldrich (Steinheim, Germany)
T2 sequence (P22303 32-614): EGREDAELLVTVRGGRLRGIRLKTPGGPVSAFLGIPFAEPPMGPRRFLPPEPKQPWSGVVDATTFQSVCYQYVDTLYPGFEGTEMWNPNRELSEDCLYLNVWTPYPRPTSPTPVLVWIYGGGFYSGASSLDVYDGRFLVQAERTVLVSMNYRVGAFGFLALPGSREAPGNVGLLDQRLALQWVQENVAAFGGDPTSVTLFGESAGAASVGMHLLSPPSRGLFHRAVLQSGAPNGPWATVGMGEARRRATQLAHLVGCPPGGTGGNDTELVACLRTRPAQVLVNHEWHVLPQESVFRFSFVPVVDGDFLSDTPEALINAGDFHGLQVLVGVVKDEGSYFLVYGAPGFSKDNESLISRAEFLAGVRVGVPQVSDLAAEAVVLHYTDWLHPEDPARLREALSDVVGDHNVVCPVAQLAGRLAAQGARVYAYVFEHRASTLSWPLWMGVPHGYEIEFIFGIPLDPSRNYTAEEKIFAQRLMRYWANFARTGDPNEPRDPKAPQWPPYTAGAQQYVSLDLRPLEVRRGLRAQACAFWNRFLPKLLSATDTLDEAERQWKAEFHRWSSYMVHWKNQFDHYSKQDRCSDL
Description: as §1, §2, §3, §4

BChE (Human) = biological target: T3, BChE (Human) (Homo sapiens, UniProt P06276); test: BChE inhibition, Ellman's method
T3 construct: purchased Sigma-Aldrich (Steinheim, Germany)
T3 sequence (P06276 29-602): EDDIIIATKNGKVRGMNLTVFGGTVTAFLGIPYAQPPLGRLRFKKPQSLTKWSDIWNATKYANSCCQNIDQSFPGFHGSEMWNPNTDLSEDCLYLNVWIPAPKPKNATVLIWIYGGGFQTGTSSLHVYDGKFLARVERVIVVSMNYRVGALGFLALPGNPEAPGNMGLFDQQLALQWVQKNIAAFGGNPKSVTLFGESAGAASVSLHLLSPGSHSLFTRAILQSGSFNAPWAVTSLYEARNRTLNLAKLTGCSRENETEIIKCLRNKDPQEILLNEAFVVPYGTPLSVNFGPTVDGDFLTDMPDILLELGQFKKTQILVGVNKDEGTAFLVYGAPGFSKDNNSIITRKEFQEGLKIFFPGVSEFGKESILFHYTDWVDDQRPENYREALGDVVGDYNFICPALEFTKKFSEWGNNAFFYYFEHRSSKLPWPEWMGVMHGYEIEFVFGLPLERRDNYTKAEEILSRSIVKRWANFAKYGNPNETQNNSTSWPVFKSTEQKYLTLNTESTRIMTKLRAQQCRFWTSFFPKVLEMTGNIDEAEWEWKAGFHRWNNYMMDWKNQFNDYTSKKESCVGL
Description: as §1, §2, §3, §4

BChE (Equine) = biological target: T4, BChE (Equine) (Equus caballus, UniProt P81908); test: biochemical
T4 construct: purchased Sigma-Aldrich (Steinheim, Germany)
T4 sequence (P81908 whole entry): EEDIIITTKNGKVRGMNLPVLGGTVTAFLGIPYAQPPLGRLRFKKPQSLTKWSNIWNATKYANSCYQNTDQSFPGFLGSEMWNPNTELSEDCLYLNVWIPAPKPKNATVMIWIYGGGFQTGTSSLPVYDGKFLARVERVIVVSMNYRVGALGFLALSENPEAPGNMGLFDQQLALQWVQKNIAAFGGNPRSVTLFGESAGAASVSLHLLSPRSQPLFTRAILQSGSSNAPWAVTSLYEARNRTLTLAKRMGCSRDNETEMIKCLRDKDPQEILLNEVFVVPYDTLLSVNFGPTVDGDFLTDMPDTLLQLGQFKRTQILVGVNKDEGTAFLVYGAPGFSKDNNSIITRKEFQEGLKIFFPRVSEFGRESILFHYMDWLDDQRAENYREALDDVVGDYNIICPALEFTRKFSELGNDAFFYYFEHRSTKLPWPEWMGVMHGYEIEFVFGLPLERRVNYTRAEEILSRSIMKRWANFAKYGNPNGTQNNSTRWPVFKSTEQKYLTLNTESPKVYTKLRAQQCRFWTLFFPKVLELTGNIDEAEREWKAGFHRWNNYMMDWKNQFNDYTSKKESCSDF
Description: as §1, §2, §3, §4

[2] = read-out: AChE (Electrophorus electricus) inhibitory activity (%) ± SD
[3] = read-out: AChE (Human) inhibitory activity (%) ± SD
[4] = read-out: BChE (Human) inhibitory activity (%) ± SD

T1 sequence (O42275 24-633): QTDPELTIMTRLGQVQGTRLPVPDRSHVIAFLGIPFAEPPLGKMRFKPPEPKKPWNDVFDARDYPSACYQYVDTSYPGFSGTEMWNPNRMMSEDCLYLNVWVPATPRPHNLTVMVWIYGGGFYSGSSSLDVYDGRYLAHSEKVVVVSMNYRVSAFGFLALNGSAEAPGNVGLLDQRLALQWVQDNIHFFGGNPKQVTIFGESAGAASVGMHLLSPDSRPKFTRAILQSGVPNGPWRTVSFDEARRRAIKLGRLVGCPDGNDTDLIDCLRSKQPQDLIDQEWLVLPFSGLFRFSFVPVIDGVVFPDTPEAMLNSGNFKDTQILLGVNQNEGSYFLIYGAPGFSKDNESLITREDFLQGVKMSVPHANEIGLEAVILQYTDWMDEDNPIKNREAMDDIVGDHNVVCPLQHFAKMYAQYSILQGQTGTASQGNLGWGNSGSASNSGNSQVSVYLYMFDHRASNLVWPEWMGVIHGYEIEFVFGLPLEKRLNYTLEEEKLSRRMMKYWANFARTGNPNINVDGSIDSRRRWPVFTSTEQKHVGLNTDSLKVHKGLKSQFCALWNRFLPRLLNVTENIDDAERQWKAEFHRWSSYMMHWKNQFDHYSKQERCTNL

**Q.** For `Nc1c2ccccc2nc2ccccc12` [Aminoacridine, 9-aminoacridine, reference compound], which inhibition at 0.001 µM [1, 2] is on record?
**A.** 16 ± 0.48%

**Q.** What about the inhibition at 0.01 µM [1, 2] of the same compound?
**A.** 20.4 ± 0.55%

**Q.** And the inhibition at 0.1 µM [1, 2]?
**A.** 31.6 ± 0.82%

**Q.** And the inhibition at 1 µM [1, 2]?
**A.** 41.7 ± 0.97%

**Q.** What about the inhibition at 10 µM [1, 2] of the same compound?
**A.** 59 ± 1.05%

**Q.** And the inhibition at 100 µM [1, 2]?
**A.** 75.2 ± 1.15%

**Q.** And the inhibition at 1000 µM [1, 2]?
**A.** 85.2 ± 1.08%

**Q.** And the inhibition at 0.001 µM (AChE (Human); [3])?
**A.** 16.7 ± 0.37%

**Q.** What about the inhibition at 0.01 µM (AChE (Human); [3]) of the same compound?
**A.** 21.6 ± 0.42%

**Q.** And the inhibition at 0.1 µM (AChE (Human); [3])?
**A.** 35.8 ± 0.67%

**Q.** And the inhibition at 1 µM (AChE (Human); [3])?
**A.** 44.3 ± 0.74%

**Q.** And the inhibition at 10 µM (AChE (Human); [3])?
**A.** 55.3 ± 0.82%

**Q.** And the inhibition at 100 µM (AChE (Human); [3])?
**A.** 78.2 ± 0.89%

**Q.** What about the inhibition at 1000 µM (AChE (Human); [3]) of the same compound?
**A.** 87.2 ± 0.97%

**Q.** And the IC50 (BChE (Human))?
**A.** 0.221 ± 0.007 µM

**Q.** What about the inhibition at 0.001 µM (BChE (Human); [4]) of the same compound?
**A.** 22.7 ± 0.48%

**Q.** And the inhibition at 0.01 µM (BChE (Human); [4])?
**A.** 31.9 ± 0.62%

**Q.** And the inhibition at 0.1 µM (BChE (Human); [4])?
**A.** 46.8 ± 0.7%

**Q.** And the inhibition at 1 µM (BChE (Human); [4])?
**A.** 53.3 ± 0.99%

**Q.** And the inhibition at 10 µM (BChE (Human); [4])?
**A.** 74.3 ± 1.08%

**Q.** And the inhibition at 100 µM (BChE (Human); [4])?
**A.** 86.1 ± 1.22%

**Q.** And the inhibition at 1000 µM (BChE (Human); [4])?
**A.** 90.4 ± 1.04%

**Q.** What about the IC50 (BChE (Equine)) of the same compound?
**A.** 0.233 ± 0.009 µM

**Q.** And the inhibition at 1000 µM (BChE (Equine); 10^-3 M, read-out: BChE (Equine) inhibitory activity (%) ± SD)?
**A.** 91.2 ± 1.2%

**Q.** What about the inhibition at 100 µM (BChE (Equine); 10^-4 M, read-out: BChE (Equine) inhibitory activity (%) ± SD) of the same compound?
**A.** 87.3 ± 1.07%

**Q.** What about the inhibition at 10 µM (BChE (Equine); 10^-5 M, read-out: BChE (Equine) inhibitory activity (%) ± SD) of the same compound?
**A.** 71.5 ± 1.02%

**Q.** And the inhibition at 1 µM (BChE (Equine); 10^-6 M, read-out: BChE (Equine) inhibitory activity (%) ± SD)?
**A.** 56.3 ± 0.97%

**Q.** And the inhibition at 0.1 µM (BChE (Equine); 10^-7 M, read-out: BChE (Equine) inhibitory activity (%) ± SD)?
**A.** 42.8 ± 0.63%

**Q.** What about the inhibition at 0.01 µM (BChE (Equine); 10^-8 M, read-out: BChE (Equine) inhibitory activity (%) ± SD) of the same compound?
**A.** 30.1 ± 0.48%

**Q.** What about the inhibition at 0.001 µM (BChE (Equine); 10^-9 M, read-out: BChE (Equine) inhibitory activity (%) ± SD) of the same compound?
**A.** 24.9 ± 0.5%

**Q.** `CCN1CCN(C(=S)SCC(=O)Nc2c3ccccc3nc3ccccc23)CC1` [Compound 4c, 2-(9-Acridinylamino)-2-oxoethyl 4-ethylpiperazine-1-carbodithioate] was tested. Which “AChE (Electrophorus electricus) inhibitory activity (%) ± SD” value ([1]; 10^-3 M) did it give?
**A.** 50.73±2.21%

**Q.** And the “AChE (Electrophorus electricus) inhibitory activity (%) ± SD” value ([1]; 10^-4 M)?
**A.** 5.11 ± 0.09%

**Q.** And the “AChE (Human) inhibitory activity (%) ± SD” value (AChE (Human); 10^-3 M)?
**A.** 51.25±1.45%

**Q.** What about the “AChE (Human) inhibitory activity (%) ± SD” value (AChE (Human); 10^-4 M) of the same compound?
**A.** 10.28 ± 0.22%

**Q.** And the “BChE (Human) inhibitory activity (%) ± SD” value (BChE (Human); 10^-3 M)?
**A.** 50.23±0.88%

**Q.** And the “BChE (Human) inhibitory activity (%) ± SD” value (BChE (Human); 10^-4 M)?
**A.** 20.55 ± 0.61%

**Q.** What about the “BChE (Equine) inhibitory activity (%) ± SD” value (BChE (Equine); 10^-3 M) of the same compound?
**A.** 45.18±0.94%

**Q.** And the “BChE (Equine) inhibitory activity (%) ± SD” value (BChE (Equine); 10^-4 M)?
**A.** 22.70 ± 0.70%

**Q.** `O=C(CSC(=S)N1CCN(c2ccc([N+](=O)[O-])cc2)CC1)Nc1c2ccccc2nc2ccccc12` [Compound 4d, 2-(9-Acridinylamino)-2-oxoethyl 4-(4-nitrophenyl)piperazine-1-carbodithioate] was tested. Which “AChE (Electrophorus electricus) inhibitory activity (%) ± SD” value ([1]; 10^-3 M) did it give?
**A.** 55.62±1.14%

**Q.** And the “AChE (Electrophorus electricus) inhibitory activity (%) ± SD” value ([1]; 10^-4 M)?
**A.** 31.64 ± 0.45%

**Q.** And the “AChE (Human) inhibitory activity (%) ± SD” value (AChE (Human); 10^-3 M)?
**A.** 50.46±1.09%

**Q.** And the “AChE (Human) inhibitory activity (%) ± SD” value (AChE (Human); 10^-4 M)?
**A.** 34.71 ± 0.77%

**Q.** And the “BChE (Human) inhibitory activity (%) ± SD” value (BChE (Human); 10^-3 M)?
**A.** 80.56±1.51%

**Q.** What about the “BChE (Human) inhibitory activity (%) ± SD” value (BChE (Human); 10^-4 M) of the same compound?
**A.** 45.26 ± 0.60%

**Q.** What about the “BChE (Equine) inhibitory activity (%) ± SD” value (BChE (Equine); 10^-3 M) of the same compound?
**A.** 77.75±1.79%

**Q.** What about the “BChE (Equine) inhibitory activity (%) ± SD” value (BChE (Equine); 10^-4 M) of the same compound?
**A.** 40.19 ± 0.49%

**Q.** `O=C(CSC(=S)N1CCN(c2ccccc2)CC1)Nc1c2ccccc2nc2ccccc12` [Compound 4f, 2-(9-Acridinylamino)-2-oxoethyl 4-phenylpiperazine-1-carbodithioate] was tested. Which “AChE (Electrophorus electricus) inhibitory activity (%) ± SD” value ([1]; 10^-3 M) did it give?
**A.** 77.65±2.42%

**Q.** What about the “AChE (Electrophorus electricus) inhibitory activity (%) ± SD” value ([1]; 10^-4 M) of the same compound?
**A.** 4.70 ± 0.27%

**Q.** What about the “AChE (Human) inhibitory activity (%) ± SD” value (AChE (Human); 10^-3 M) of the same compound?
**A.** 74.28±1.04%

**Q.** And the “AChE (Human) inhibitory activity (%) ± SD” value (AChE (Human); 10^-4 M)?
**A.** 8.71 ± 0.62%

**Q.** What about the “BChE (Human) inhibitory activity (%) ± SD” value (BChE (Human); 10^-3 M) of the same compound?
**A.** 75.23±1.25%

**Q.** What about the “BChE (Human) inhibitory activity (%) ± SD” value (BChE (Human); 10^-4 M) of the same compound?
**A.** 15.67 ± 0.79%

**Q.** What about the “BChE (Equine) inhibitory activity (%) ± SD” value (BChE (Equine); 10^-3 M) of the same compound?
**A.** 77.60±1.60%

**Q.** And the “BChE (Equine) inhibitory activity (%) ± SD” value (BChE (Equine); 10^-4 M)?
**A.** 12.80 ± 0.87%

**Q.** How did the “AChE (Electrophorus electricus) inhibitory activity (%) ± SD” value ([1]; 10^-3 M) turn out when `CN1CCN(C(=S)SCC(=O)Nc2c3ccccc3nc3ccccc23)CC1` [Compound 4g, 2-(9-Acridinylamino)-2-oxoethyl 4-methylpiperazine-1-carbodithioate] was run?
**A.** 26.90±0.83%

**Q.** What about the “AChE (Electrophorus electricus) inhibitory activity (%) ± SD” value ([1]; 10^-4 M) of the same compound?
**A.** 10.44 ± 0.66%

**Q.** And the “AChE (Human) inhibitory activity (%) ± SD” value (AChE (Human); 10^-3 M)?
**A.** 30.85±0.65%

**Q.** What about the “AChE (Human) inhibitory activity (%) ± SD” value (AChE (Human); 10^-4 M) of the same compound?
**A.** 11.30 ± 0.58%

**Q.** What about the “BChE (Human) inhibitory activity (%) ± SD” value (BChE (Human); 10^-3 M) of the same compound?
**A.** 80.29±2.40%

**Q.** And the “BChE (Human) inhibitory activity (%) ± SD” value (BChE (Human); 10^-4 M)?
**A.** 35.97 ± 0.80%

**Q.** And the “BChE (Equine) inhibitory activity (%) ± SD” value (BChE (Equine); 10^-3 M)?
**A.** 78.11±2.24%

**Q.** What about the “BChE (Equine) inhibitory activity (%) ± SD” value (BChE (Equine); 10^-4 M) of the same compound?
**A.** 33.65 ± 0.89%

**Q.** For `COc1ccc(N2CCN(C(=S)SCC(=O)Nc3c4ccccc4nc4ccccc34)CC2)cc1` [Compound 4h, 2-(9-Acridinylamino)-2-oxoethyl 4-(4-methoxyphenyl)piperazine-1-carbodithioate], which “AChE (Electrophorus electricus) inhibitory activity (%) ± SD” value ([1]; 10^-3 M) is on record?
**A.** 30.87±1.01%

**Q.** What about the “AChE (Electrophorus electricus) inhibitory activity (%) ± SD” value ([1]; 10^-4 M) of the same compound?
**A.** 15.23 ± 0.69%

**Q.** And the “AChE (Human) inhibitory activity (%) ± SD” value (AChE (Human); 10^-3 M)?
**A.** 35.77±1.62%

**Q.** And the “AChE (Human) inhibitory activity (%) ± SD” value (AChE (Human); 10^-4 M)?
**A.** 18.39 ± 0.57%

**Q.** What about the “BChE (Human) inhibitory activity (%) ± SD” value (BChE (Human); 10^-3 M) of the same compound?
**A.** 80.88±2.05%

**Q.** What about the “BChE (Human) inhibitory activity (%) ± SD” value (BChE (Human); 10^-4 M) of the same compound?
**A.** 15.58 ± 0.67%

**Q.** And the “BChE (Equine) inhibitory activity (%) ± SD” value (BChE (Equine); 10^-3 M)?
**A.** 84.02±2.35%

**Q.** What about the “BChE (Equine) inhibitory activity (%) ± SD” value (BChE (Equine); 10^-4 M) of the same compound?
**A.** 12.64 ± 0.46%

— article PMC6222329 (Molecules : A Journal of Synthetic Chemistry and Natural …, 2018)
